44 compounds from patent publication US11759454B2, “Diazole lactams” (CHEMOCENTRYX, INC., priority 2012, dated 2023) can be followed below.

Bounds are passed on as bounds.

The first assay deals with T1, CCR1 (Homo sapiens, UniProt P32246).
T1 construct: host or cells: THP-1 cells (or freshly isolated monocytes)
T1 sequence (P32246 1-355): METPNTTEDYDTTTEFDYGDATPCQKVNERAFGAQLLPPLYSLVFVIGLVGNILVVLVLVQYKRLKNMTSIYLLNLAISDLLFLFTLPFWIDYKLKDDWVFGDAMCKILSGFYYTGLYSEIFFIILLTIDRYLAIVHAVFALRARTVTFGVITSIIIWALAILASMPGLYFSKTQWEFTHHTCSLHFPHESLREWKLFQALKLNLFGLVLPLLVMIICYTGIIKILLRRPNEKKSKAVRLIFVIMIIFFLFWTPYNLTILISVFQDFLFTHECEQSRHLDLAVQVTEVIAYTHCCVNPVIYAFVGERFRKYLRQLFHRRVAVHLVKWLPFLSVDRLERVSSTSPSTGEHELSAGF
The assay is described as follows: Chemotaxis assay (inhibition of CCR1 mediated migration). Format: cell-based. Particulars: chemotaxis of THP-1 or monocyte cells toward CCR1 chemokine ligand (MIP-1α, CCL15/leukotactin); read-out: Avg Mig IC50. The procedure: THP-1 cells were obtained from ATCC (TIB-202) and cultured as a suspension in RPMI-1640 medium supplemented with 2 mM L-glutamine, 1.5 g/L sodium bicarbonate, 4.5 g/L glucose, 10 mM HEPES, 1 mM sodium pyruvate, 0.05% 2-mercaptoethanol and 10% FBS. Cells were grown under 5% CO2/95% air, 100% humidity at 37° C. and subcultured twice weekly at 1:5 (cells were cultured at a density range of 2×10^5 to 2×10^6 cells/mL) and harvested at 1×10^6 cells/mL. THP-1 cells express CCR1 and can be used in CCR1 binding and functional assays.
Chemotaxis assays were performed using 5 μm pore polycarbonate, polyvinylpyrrolidone-coated filters in 96-well chemotaxis chambers (Neuroprobe; Gaithersburg, Md.) using chemotaxis buffer (Hank's balanced salt solution (HBSS) and 1% FBS). CCR1 chemokine ligands (i.e., MIP-1α, CCL15/Leukotactin; R&D Systems; Minneapolis, Minn.) are use to evaluate compound mediated inhibition of CCR1 mediated migration. Other chemokines (i.e., SDF-1α; R&D Systems; Minneapolis, Minn.) are used as specificity controls. The lower chamber was loaded with 29 μl of chemokine (i.e., 0.1 nM CCL15/Leukotactin) and varying amounts of compound; the top chamber contained 100,000 THP-1 or monocyte cells in 20 μl. The chambers were incubated 1-2 hours at 37° C., and the number of cells in the lower chamber quantified either by direct cell counts in five high powered fields per well or by the CyQuant assay (Molecular Probes), a fluorescent dye method that measures nucleic acid content and microscopic observation.
One of the primary functions of chemokines is their ability to mediate the migration of chemokine receptor-expressing cells, such as white blood cells. To confirm that a compound of interest inhibited not only CCR1 specific binding and signaling (at least as determined by calcium mobilization assays), but also CCR1 mediated migration, a chemotaxis assay was employed. THP-1 myelomonocytic leukemia cells, which resemble monocytes, as wells as freshly isolated monocytes, were used as targets for chemoattraction by CCR1 chemokine ligands (i.e., MIP-1α, CCL15/leukotactin). Cells were placed in the top compartment of a microwell migration chamber, while MIP-1α (or other potent CCR1 chemokine ligand) and increasing concentrations of a compound of interest was loaded in the lower chamber. […] To ascertain a compound of interest's affinity for CCR1 as well as to confirm its ability to inhibit CCR1 mediated cell migration, inhibitory activity was titered over a 1×10^−10 to 1×10^−4 M range of compound concentrations in this chemotaxis assay. In this assay, the amount of compound was varied; while cell number and chemokine agonist concentrations were held constant. After the chemotaxis chambers were incubated 1-2 hours at 37° C., the responding cells in the lower chamber were quantified by labeling with the CyQuant assay (Molecular Probes), a fluorescent dye method that measures nucleic acid content, and by measuring with a Spectrafluor Plus (Tecan). The computer program Prism from GraphPad, Inc. (San Diego, Calif.) was used to calculate IC50 values. IC50 values are those compound concentrations required to inhibit the number of cells responding to a CCR1 agonist by 50%.
As usually defined, the IC50 is the concentration at which inhibition is half-maximal. In the case of `CCCc1c(N2CCC(n3nc(C(F)(F)F)c(Cl)c3C)C2=O)cnn1-c1cccc(F)c1` (stereo not shown) [Compound 1.019], the IC50 lay in the range of 100 to 20000 nM.
Consider `Cc1c(N2CCC(n3nc(C(F)(F)F)nc3C)C2=O)cnn1-c1ccc(F)cc1` (stereo not shown) [Compound 1.034], for which the 50% inhibitory concentration (IC50) fell in the range of 100 to 20000 nM.
With `Cc1nc(C(F)(F)F)cn1C1CCN(c2cnn(-c3ccc(Cl)cc3)c2C(F)(F)F)C1=O` (stereo not shown) [Compound 1.043], the half-inhibitory concentration (IC50) lay within 100 to 20000 nM.
On to `Cc1c(Cl)c(C(F)(F)F)nn1C1CCN(c2cnn(-c3cccc(F)c3)c2I)C1=O` (stereo not shown) [Compound 1.023], for which the IC50 lay within 100 to 20000 nM.
For the compound `Cc1nc(C(F)(F)F)cn1C1CCN(c2cnn(-c3ccc(F)cc3)c2N(C)C)C1=O` (stereo not shown) [Compound 1.001], the concentration for half-maximal inhibition (IC50) lay in the range of 100 to 20000 nM.
The same measure, in the same setting: the figure for `CC(C)c1c(N2CCC(n3nc(-c4ncc[nH]4)c4c(N)ncnc43)C2=O)cnn1-c1ccc(F)cc1` (stereo not shown) [Compound 1.014] is 100 to 20000 nM; for `CCc1c(N2CCC(n3nc(C(F)(F)F)c(Cl)c3C)C2=O)cnn1-c1ccc(F)cc1` (stereo not shown) [Compound 1.032] it is at most 100 nM.
The same measure, in the same setting: the figure for `CCC(C)c1c(N2CCC(n3nc(C(F)(F)F)c(Cl)c3C)C2=O)cnn1-c1ccc(F)cc1` (stereo not shown) [Compound 1.010] is at most 100 nM; for `CC(C)c1c(N2CCC(n3nc(-c4ncc[nH]4)c4cccnc43)C2=O)cnn1-c1ccc(F)cc1` (stereo not shown) [Compound 1.021] it is 100 to 20000 nM.
Consider `CCc1nc(C(F)(F)F)cn1C1CCN(c2cnn(-c3ccc(Cl)cc3)c2C(C)C)C1=O` (stereo not shown) [Compound 1.004], for which the concentration for half-maximal inhibition (IC50) is at most 100 nM.
Still for that read-out and setting: the figure for `Cc1nc(C(F)(F)F)cn1C1CCN(c2cnn(-c3ccc(F)cc3)c2C)C1=O` (stereo not shown) [Compound 1.033] is 100 to 20000 nM.
Same read-out and setting: the figure for `Cc1c(Cl)c(C(F)(F)F)nn1C1CCN(c2cnn(-c3ccc(F)cc3)c2C2CC2)C1=O` (stereo not shown) [Compound 1.006] is at most 100 nM; for `Cc1c(Cl)c(C(C)(C)O)nn1C1CCN(c2cnn(-c3ccc(F)cc3)c2C(C)C)C1=O` (stereo not shown) [Compound 1.018] it is 100 to 20000 nM.
On to `Cc1nc(C(F)(F)F)cn1C1(C)CCN(c2cnn(-c3ccc(Cl)cc3)c2C(C)C)C1=O` (stereo not shown) [Compound 1.003], for which the 50% inhibitory concentration (IC50) is 100 to 20000 nM.
`Cc1c(N2CCCCC(n3nc(C(F)(F)F)c(Cl)c3C)C2=O)cnn1-c1ccc(F)cc1` (stereo not shown) [Compound 1.029]: the concentration for half-maximal inhibition (IC50) is 100 to 20000 nM.
For the compound `Cc1c(Cl)c(C(F)(F)F)nn1C1CCN(c2cnn(-c3cccc(F)c3)c2C2CC2)C1=O` (stereo not shown) [Compound 1.024], the IC50 fell in the range of 100 to 20000 nM.
Still for that read-out and setting: for `Cc1c(Cl)c(C(F)(F)F)nn1C1CCN(c2cnn(-c3ccc(F)cc3)c2-c2ccccc2)C1=O` (stereo not shown) [Compound 1.026] the value was 100 to 20000 nM.
For `Cc1c(Cl)c(C(F)(F)F)nn1C1CCCN(c2cnn(-c3ccc(F)cc3)c2)C1=O` (stereo not shown) [Compound 1.037], the half-inhibitory concentration (IC50) is 100 to 20000 nM.
Still for that read-out and setting: for `CC(C)c1c(N2CCC(n3ccc(C(F)(F)F)n3)C2=O)cnn1-c1ccc(F)cc1` (stereo not shown) [Compound 1.013] the value was 100 to 20000 nM; for `CCCc1c(N2CCC(n3nc(C(F)(F)F)c(Cl)c3C)C2=O)cnn1-c1ccc(F)cc1` (stereo not shown) [Compound 1.007], 100 to 20000 nM; for `Cc1cc(C(F)(F)F)nn1C1CCN(c2cnn(-c3ccc(F)cc3)c2)C1=O` (stereo not shown) [Compound 1.038], 100 to 20000 nM.
The same measure, in the same setting: the figure for `Cc1c(Cl)c(C(F)(F)F)nn1C1CCN(c2cnn(-c3ccc(F)cc3)c2C(C)(C)C)C1=O` (stereo not shown) [Compound 1.020] is 100 to 20000 nM; for `Cc1nc(C(F)(F)F)cn1C1CCCN(c2cnn(-c3ccc(F)cc3)c2C)C1=O` (stereo not shown) [Compound 1.036] it is 100 to 20000 nM; for `Cc1c(Cl)c(C(F)(F)F)nn1C1CCN(c2cnn(-c3ccc(F)cc3)c2)C1=O` (stereo not shown) [Compound 1.040] it is 100 to 20000 nM.
For the compound `Cc1c(Cl)c(C(F)(F)F)nn1C1CC(C)N(c2cnn(-c3ccc(F)cc3)c2C(C)C)C1=O` (stereo not shown) [Compound 1.009], the half-maximal inhibitory concentration (IC50) was at most 100 nM.
Still for that read-out and setting: the figure for `Cc1nc(C(F)(F)F)cn1[C@H]1CCN(c2cnn(-c3ccc(Cl)cc3)c2C(C)C)C1=O` [Compound 1.045] is at most 100 nM.
Consider `Cc1c(Cl)c(C(F)(F)F)nn1C1CCN(c2cnn(-c3ccc(Cl)cc3)c2C(C)C)C1=O` (stereo not shown) [Compound 1.011], for which the half-inhibitory concentration (IC50) is at most 100 nM.
Regarding `Cc1c(Cl)c(-c2ncc[nH]2)nn1C1CCN(c2cnn(-c3ccc(F)cc3)c2C(C)C)C1=O` (stereo not shown) [Compound 1.015], the IC50 was 100 to 20000 nM.
On to `Cc1nc(C(F)(F)F)cn1C1CCN(c2cnn(-c3ccc(Cl)cc3)c2C2CCC2)C1=O` (stereo not shown) [Compound 1.044], for which the IC50 is at most 100 nM.
Same read-out and setting: for `Cc1nc(C(F)(F)F)cn1C1CCN(c2cnn(-c3ccc(F)cc3)c2OC(C)C)C1=O` (stereo not shown) [Compound 1.002] the value was at most 100 nM.
Consider `Cc1c(Cl)c(C(F)(F)F)nn1C1CCN(c2cnn(-c3cccc(F)c3)c2-c2ccoc2)C1=O` (stereo not shown) [Compound 1.027], for which the IC50 lay in the range of 100 to 20000 nM.
The same measure, in the same setting: for `Cc1nc(C(F)(F)F)cn1C1CCN(c2cnn(-c3ccc(F)cc3)c2C(C)C)C1=O` (stereo not shown) [Compound 1.025] the value was at most 100 nM; for `Cc1nc(C(F)(F)F)cn1[C@H]1CCN(c2nnn(-c3ccc(Cl)cc3)c2C(C)C)C1=O` [Compound 1.042], at most 100 nM; for `C/C=C(\C)c1c(N2CCC(n3nc(C(F)(F)F)c(Cl)c3C)C2=O)cnn1-c1ccc(F)cc1` (stereo not shown) [Compound 1.012], 100 to 20000 nM.
Same read-out and setting: the figure for `Cc1c(Cl)c(C(F)(F)F)nn1C1CCN(c2cnn(-c3ccc(F)cc3)c2C(C)C)C1=O` (stereo not shown) [Compound 1.028] is at most 100 nM; for `Cc1nc(C(F)(F)F)cn1C1CCCN(c2cnn(-c3ccc(F)cc3)c2C)C1=O` (stereo not shown) [Compound 1.031] it is 100 to 20000 nM; for `Cc1nc(C(F)(F)F)cn1C1CCN(c2cnn(-c3ccc(Cl)cc3)c2C(C)C)C1=O` (stereo not shown) [Compound 1.008] it is at most 100 nM.
`Cc1nc(C(F)(F)F)cn1C1CC(C)N(c2cnn(-c3ccc(F)cc3)c2C(C)C)C1=O` (stereo not shown) [Compound 1.005]: the half-maximal inhibitory concentration (IC50) lay within 100 to 20000 nM.
On the same count and under the same terms, the figure for `Cc1nc(C(F)(F)F)cn1C1CCN(c2cnn(-c3ccc(F)cc3)c2)C1=O` (stereo not shown) [Compound 1.039] is 100 to 20000 nM; for `Cc1cc(C(F)(F)F)nn1C1CCN(c2cnn(-c3ccc(F)cc3)c2C(C)C)C1=O` (stereo not shown) [Compound 1.022] it is at most 100 nM; for `Cc1nn(C2CCN(c3cnn(-c4ccc(F)cc4)c3C(C)C)C2=O)c(C(C)(C)O)c1Cl` (stereo not shown) [Compound 1.017] it is 100 to 20000 nM.
Regarding `COc1cc(-n2ncc(N3CC[C@H](n4cc(C(F)(F)F)nc4C)C3=O)c2C(C)C)ccc1Cl` [Compound 1.041], the half-maximal inhibitory concentration (IC50) fell in the range of 100 to 20000 nM.
Same read-out and setting: the figure for `Cc1c(N2CCC(n3nc(C(F)(F)F)c(Cl)c3C)C2=O)cnn1-c1ccc(F)cc1` (stereo not shown) [Compound 1.035] is 100 to 20000 nM; for `Cc1c(N2CCCC(n3nc(C(F)(F)F)c(Cl)c3C)C2=O)cnn1-c1ccc(F)cc1` (stereo not shown) [Compound 1.030] it is 100 to 20000 nM.

The next assay relates to CCR1 bearing neutrophils. In words: Murine model of inflammation (thioglycolate induced peritoneal inflammation). Type of assay: in vivo. Particulars: 3% thioglycolate into the peritoneum. The procedure:
Murine Model of Inflammation
A method of inducing peritoneal inflammation by the introduction of 3% thioglycolate into the peritoneum is well know in the art. Following the introduction of thioglycolate, a rapid influx of immune cells to the site, primarily CCR1 bearing neutrophils, results in local inflammation at 24 hours. A peritoneal exudate can be sampled, and the cell number and composition can be assessed to determine the anti-inflammatory properties of a compound of interest administered before, during or after the thioglycolate induction.
In the case of `Cc1nc(C(F)(F)F)cn1[C@H]1CCN(c2nnn(-c3ccc(Cl)cc3)c2C(C)C)C1=O` [Compound 1.042], the “neutrophil number in peritoneal exudate” value is “dramatic decrease” and the “total cell number in peritoneal exudate” value is on record as “dramatic decrease”.
